Reference: patent US10376502B2, “Alkylated imino sugars exhibiting glucosidase inhibition and their method of use” (Baruch S. Blumberg Institute, priority 2012, dated 2019)

Key:
[1] = system: BVDV; assay: BVDV single cycle virus yield reduction assay with plaque titration; format: cell-based, BVDV (NADL strain); settings: Bovine viral diarrhea virus isolates and strains; MDBK cells, MOI 0.5, 22 hours post infection; compound 0.16 μM to 100 μM
Description: Cells and viruses: BVDV free MDBK cells (CCL 22) were obtained from the American Type Culture Collection and propagated in DMEMIF12 essential medium supplemented with penicillin (500 U/ml), streptomycin (500 U/ml), and 10% heat inactivated horse serum (Invitrogen). Cells were maintained in a humidified incubator at 37° C. with 5% C02. BVDV (NADL strain). For infections, virus inoculum was added in complete medium and adsorbed for 1 hour at 37‘C’, the inoculum was then removed, the cells washed once with medium and fresh medium containing compounds added. Virus stocks were prepared by freeze thawing the infected cells and culture supernatant three times followed by centrifugation at 1,000 g for 5 min., Stock titers were determined, and stocks were aliquoted and stored at −80° C. WNV was obtained from a eDNA clone of a human 2002 isolate from Texas; virus obtained from BHK cells electroporated with the in vitro synthesized RNA from this eDNA clone was passaged in Vero cells before use in antiviral assays. Dengue virus (DV) serotype 2 was a New Guinea C virus that had been passaged 28 times in suckling mouse brain, twice in Vero cells, and once in C6/36 mosquito cells.
BVDV antiviral and plaque assays: To evaluate antiviral activity against BVDV, a single cycle virus yield reduction assay was performed in the presence of from 0.16 μM to 100 μM through 5-fold dilution. Specifically, 2×10^5 MDBK cells/well were plated in 24 well plates. Twenty four hours later, the cells were infected with BVDV at multiplicity of infection (MOI) of 0.5 PFU/cell in 100 uL complete media. After adsorption for 1 hour at 37° C., the inoculum was removed, and cells were washed with media before media containing vehicle or from 0.16 μM to 100 μM through 5-fold dilution of test compound was added. At 22 hours post infection, both cells and media were collected and freeze-thawed three times before the virus was tittered. For BVDV virus, titer determination, 10^−2, 10^−3, 10^−4 dilutions of virus were inoculated onto MDBK cells as described previously. After absorption and washing the cells were overlaid with medium containing methylcellulose or soft agar and incubated at 37° C. for 3 days or until plaques were visible. Plaques were counted directly under the microscope or after staining with crystal violet in 70% methanol for 15 minutes.

[2] = system: their target viruses; settings: against their target viruses; cited from earlier work

SMILES | EC50 [1] | EC90 [1] | concentrations to achieve EC50 values in tissue culture [2]
CC(C)(C)C(=O)Nc1cccc(CCCN2C[C@H](O)[C@@H](O)[C@H](O)[C@H]2CO)c1 [Entry 15] | 2400 nM | – | –
CC(C)(C)C(=O)N(CCCCCCN1C[C@H](O)[C@@H](O)[C@H](O)[C@H]1CO)C1CCCC1 [Entry 12] | 850 nM | 32 µM | –
CC1CCCCC1NCCCCCCN1C[C@H](O)[C@@H](O)[C@H](O)[C@H]1CO (some centres unmarked) [Entry 2] | 100000 nM | – | –
CC(C)C(=O)N(CCCCCCN1C[C@H](O)[C@@H](O)[C@H](O)[C@H]1CO)C1CCCCC1 [Entry 8] | 450 nM | 25 µM | –
CCCC(=O)O[C@H]1CN2CC[C@H](O)[C@@H]2[C@@H](O)[C@@H]1O [Cellgosovir] | – | – | near millimolar
CC(=O)N(CCCCCCN1C[C@H](O)[C@@H](O)[C@H](O)[C@H]1CO)c1ccc(F)cc1F [Entry 5] | 6000 nM | 67 µM | –
O=C(c1ccccc1)N(CCCCCCN1C[C@H](O)[C@@H](O)[C@H](O)[C@H]1CO)C1CCCCC1 [Entry 20] | 320 nM | 11 µM | –
CC1CCCCC1N(CCCCCCN1C[C@H](O)[C@@H](O)[C@H](O)[C@H]1CO)C(=O)OC(C)(C)C (some centres unmarked) [Entry 1] | 400 nM | 3.5 µM | –
CC(C)(C)C(=O)N(CCCCCCN1C[C@H](O)[C@@H](O)[C@H](O)[C@H]1CO)C1CCCCC1 [Entry 3] | 200 nM | 13 µM | –
CC(C)(C)S(=O)(=O)N(CCCCCCN1C[C@H](O)[C@@H](O)[C@H](O)[C@H]1CO)C1CCCCC1 [Entry 17] | 310 nM | 50 µM | –
CC(C)(C)C(=O)N(CCCCCCN1[C@H](CO)[C@@H](O)[C@H](O)[C@H]1CO)C1CCCCC1 [Entry 14] | 21000 nM | – | –
CC(C)(C)C(=O)N(CCCCCCN1C[C@H](O)[C@@H](O)[C@H](O)[C@H]1CO)C1CCCCCC1 [Entry 13] | 400 nM | 9 µM | –
CC(=O)N(CCCCCCN1C[C@H](O)[C@@H](O)[C@H](O)[C@H]1CO)c1cc(F)ccc1F [Entry 4] | 5000 nM | – | –
CC(C)(C)N[S+]([O-])N(CCCCCCN1C[C@H](O)[C@@H](O)[C@H](O)[C@H]1CO)C1CCCCC1 (some centres unmarked) [Entry 19] | 300 nM | 25 µM | –
CC(C)(C)C(=O)Nc1ccc(CCCN2C[C@H](O)[C@@H](O)[C@H](O)[C@H]2CO)cc1 [Entry 16] | > 100000 nM | – | –
O=S(=O)(c1ccccc1)N(CCCCCCN1C[C@H](O)[C@@H](O)[C@H](O)[C@H]1CO)C1CCCCC1 [Entry 18] | 500 nM | 18 µM | –
CC(C)(C)C(=O)N(CCCCCCN1C[C@H](O)[C@@H](O)[C@H](O)[C@H]1CO)c1ccc(F)cc1F [Entry 7] | 250 nM | 45 µM | –
CC(C)(C)C(=O)N(CCCCCCN1C[C@H](O)[C@@H](O)[C@H](O)[C@H]1CO)C1CCC1 [Entry 11] | 800 nM | – | –
CC(C)(C)C(=O)N(CCCCCCN1C[C@H](O)[C@@H](O)[C@H](O)[C@H]1CO)c1cc(F)ccc1F [Entry 6] | 400 nM | 18 µM | –
CC(C)(C)CC(=O)N(CCCCCCN1C[C@H](O)[C@@H](O)[C@H](O)[C@H]1CO)C1CCCCC1 [Entry 9] | 180 nM | 4 µM | –
CC(C)(C)C(=O)N(CCCCCCN1C[C@H](O)[C@@H](O)[C@H](O)[C@H]1CO)C1CC1 [Entry 10] | 3750 nM | – | –
CCCCN1C[C@H](O)[C@@H](O)[C@H](O)[C@H]1CO [NBDNJ, N-butyl-DNJ] | – | – | near millimolar
